From patent US10975119B2, “Selective cysteine protease inhibitors and uses thereof” (Genesis Technologies Limited, priority 2011, dated 2021) come the findings set out here.

Where two headings read alike, the source gives them in different places. Some results are limits rather than exact numbers.

Assay type in all cases: biochemical
In one assay the target is T1, Caspase-6 (Homo sapiens, UniProt P55212).
T1 construct: mixing the compounds with the respective active caspases; purchased BioVision K156-100
T1 sequence (P55212 24-179 limits assumed): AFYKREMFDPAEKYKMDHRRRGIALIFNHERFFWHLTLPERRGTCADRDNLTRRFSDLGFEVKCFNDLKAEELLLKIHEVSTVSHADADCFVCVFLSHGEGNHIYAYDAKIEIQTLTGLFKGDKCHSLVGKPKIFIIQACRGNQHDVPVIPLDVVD
T1 sequence (P55212 194-293 limits assumed): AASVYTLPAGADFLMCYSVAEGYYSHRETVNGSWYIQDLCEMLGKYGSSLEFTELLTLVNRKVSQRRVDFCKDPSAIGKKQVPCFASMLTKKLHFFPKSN
The assay is described as follows: Caspase-6 inhibitor screening assay (BioVision kit, VEID-AFC). Particulars: for IC50: read-out: IC50 Casp6; for inhibition at 10 µM: read-out: % Inhibition at 10 uM Casp6; for inhibition at 100 µM: read-out: % Inhibition at 100 uM Casp6. Summed up: (§1)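 Each caspase cleaved its own AFC-labelled peptide substrate, and released AFC was read by fluorescence. % inhibition came from RFU against an uninhibited control.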

The target of a further assay is T2, Caspase-8 (Homo sapiens, UniProt Q14790).
T2 construct: mixing the compounds with the respective active caspases; purchased BioVision K158-100
Put plainly: Caspase-8 inhibitor screening assay (BioVision kit, IETD-AFC). Particulars: for inhibition at 10 µM: read-out: % Inhibition at 10 uM Casp8; for inhibition at 100 µM: read-out: % Inhibition at 100 uM Casp8. The procedure, abridged:
as §1

The target of another assay is T3, Caspase-4 (Homo sapiens, UniProt P49662).
T3 construct: mixing the compounds with the respective active caspases; purchased BioVision K154-100
T3 sequence (P49662 81-270 limits assumed): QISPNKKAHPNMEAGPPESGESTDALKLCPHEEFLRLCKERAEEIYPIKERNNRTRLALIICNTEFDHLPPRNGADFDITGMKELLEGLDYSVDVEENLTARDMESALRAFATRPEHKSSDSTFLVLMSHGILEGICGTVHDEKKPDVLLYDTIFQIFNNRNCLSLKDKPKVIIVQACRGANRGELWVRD
T3 sequence (P49662 290-377 limits assumed): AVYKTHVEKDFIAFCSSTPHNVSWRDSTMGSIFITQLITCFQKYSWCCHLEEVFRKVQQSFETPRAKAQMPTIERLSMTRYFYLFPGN
Put plainly: Caspase-4 inhibitor screening assay (BioVision kit, LEVD-AFC). Particulars: for IC50: read-out: IC50 Casp4; for inhibition at 10 µM: read-out: % Inhibition at 10 uM Casp4; for inhibition at 100 µM: read-out: % Inhibition at 100 uM Casp4. Summed up:
as §1

For the next assay, the target named is T4, Caspase-10 (Homo sapiens, UniProt Q92851).
T4 construct: mixing the compounds with the respective active caspases; purchased BioVision K160-100
T4 sequence (Q92851 220-415 limits assumed): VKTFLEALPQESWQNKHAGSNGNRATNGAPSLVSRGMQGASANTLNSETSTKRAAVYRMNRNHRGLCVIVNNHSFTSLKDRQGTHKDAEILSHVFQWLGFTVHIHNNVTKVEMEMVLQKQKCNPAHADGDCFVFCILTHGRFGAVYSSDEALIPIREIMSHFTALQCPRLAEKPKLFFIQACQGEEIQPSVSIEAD
T4 sequence (Q92851 416-521 limits assumed): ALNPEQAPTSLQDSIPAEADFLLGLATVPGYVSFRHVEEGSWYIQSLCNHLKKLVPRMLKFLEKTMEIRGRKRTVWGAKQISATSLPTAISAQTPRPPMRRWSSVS
Put plainly: Caspase-10 inhibitor screening assay (BioVision kit, AEVD-AFC). Particulars: for inhibition at 10 µM: read-out: % Inhibition at 10 uM Casp10; for inhibition at 100 µM: read-out: % Inhibition at 100 uM Casp10. The procedure, abridged: as §1

A further assay concerns the target T5, Caspase-3 (Homo sapiens, UniProt P42574).
T5 construct: mixing the compounds with the respective active caspases; purchased BioVision K153-100
T5 sequence (P42574 29-175 limits assumed): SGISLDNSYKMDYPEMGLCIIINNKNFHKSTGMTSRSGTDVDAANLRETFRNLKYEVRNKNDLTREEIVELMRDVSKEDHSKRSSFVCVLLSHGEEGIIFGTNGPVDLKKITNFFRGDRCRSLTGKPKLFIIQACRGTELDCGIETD
T5 sequence (P42574 176-277 limits assumed): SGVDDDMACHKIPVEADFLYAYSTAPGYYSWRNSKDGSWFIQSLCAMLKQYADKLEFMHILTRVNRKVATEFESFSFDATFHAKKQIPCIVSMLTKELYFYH
The assay is described as follows: Caspase-3 inhibitor screening assay (BioVision kit, DEVD-AFC). Particulars: for IC50: read-out: IC50 Casp3; for inhibition at 10 µM: read-out: % Inhibition at 10 uM Casp3; for inhibition at 100 µM: read-out: % Inhibition at 100 uM Casp3. Summed up:
as §1

Another assay concerns the target T6, Caspase-5 (Homo sapiens, UniProt P51878).
T6 construct: mixing the compounds with the respective active caspases; purchased BioVision K155-100
T6 sequence (P51878 137-327 limits assumed): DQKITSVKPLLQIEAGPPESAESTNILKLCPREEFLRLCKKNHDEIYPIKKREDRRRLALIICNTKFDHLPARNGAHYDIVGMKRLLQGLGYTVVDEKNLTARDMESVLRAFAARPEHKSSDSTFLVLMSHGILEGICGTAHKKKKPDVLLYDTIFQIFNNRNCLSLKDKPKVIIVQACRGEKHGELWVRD
T6 sequence (P51878 347-434 limits assumed): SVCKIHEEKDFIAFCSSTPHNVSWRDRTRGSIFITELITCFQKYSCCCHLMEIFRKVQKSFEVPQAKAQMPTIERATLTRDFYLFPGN
The assay is described as follows: Caspase-5 inhibitor screening assay (BioVision kit, WEHD-AFC). Particulars: for IC50: read-out: IC50 Casp5; for inhibition at 10 µM: read-out: % Inhibition at 10 uM Casp5; for inhibition at 100 µM: read-out: % Inhibition at 100 uM Casp5. The procedure, abridged:
as §1

T2 sequence (Q14790 217-374 limits assumed): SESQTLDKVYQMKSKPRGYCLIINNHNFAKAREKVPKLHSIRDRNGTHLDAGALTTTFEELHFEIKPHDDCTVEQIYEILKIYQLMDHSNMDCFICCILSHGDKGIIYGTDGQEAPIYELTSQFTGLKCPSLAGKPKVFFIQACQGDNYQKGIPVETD
T2 sequence (Q14790 385-479 limits assumed): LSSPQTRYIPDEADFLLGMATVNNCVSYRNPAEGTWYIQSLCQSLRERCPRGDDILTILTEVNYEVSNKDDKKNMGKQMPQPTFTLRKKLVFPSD

Take `CCOC(=O)/C=C/[C@H](CC(=O)O)NC(=O)[C@@H](NC(=O)[C@H](CCC(=O)O)NC(=O)[C@@H](NC(=O)OCc1ccccc1)C(C)C)c1ccccc1` [Compound 126, Z-Val-Glu-Phg-Asp-Ethyl Vinyl ester]: the IC50 was 0.48 µM at Caspase-6; 0.08 µM on Caspase-8 (read-out: IC50 Casp8); 0.079 µM at Caspase-8 (read-out: potency (IC50) against caspase-8); 0.77 µM at Caspase-4; 0.002 µM at Caspase-10 (read-out: potency (IC50) against caspase-10); 2.78 µM at Caspase-3. Moreover, the IC50 at Caspase-5 was 8.58 µM.
For the compound `CC(C)[C@H](NC(=O)[C@H](CCC(=O)O)NC(=O)[C@H](Cc1c[nH]c2ccccc12)NC(=O)OCc1ccccc1)C(=O)N[C@H](/C=C/S(C)(=O)=O)CC(=O)O` [Compound 40, Z-Trp-Glu-Val-Asp-methyl vinyl sulfone], the inhibition at 10 µM on Caspase-6 was 7%; on Caspase-8, 61%; on Caspase-4 it was 100%; on Caspase-10, 80%; at Caspase-3, 63%; at Caspase-5 it was 95%. Further, the inhibition at 100 µM is 51% on Caspase-6; 96% on Caspase-8 (100 uM); 100% at Caspase-4; 99% at Caspase-10 (100 uM); 94% at Caspase-3; 100% at Caspase-5. The IC50 at Caspase-6 was ~100 µM; at Caspase-8 (read-out: IC50 Casp8) it was 5.93 µM; at Caspase-4, 0.18 µM; at Caspase-10 (read-out: IC50 Casp10), 3.29 µM; at Caspase-3, 6.55 µM; on Caspase-5 it was 0.75 µM.
On to `CC(C)[C@H](NC(=O)OCc1ccccc1)C(=O)N[C@H](/C=C/S(C)(=O)=O)CC(=O)O` [Compound 3, Z-Val-Asp methyl vinyl sulfone], for which the inhibition at 10 µM came to 0% at Caspase-6; 0% on Caspase-8; 0% at Caspase-4; 15% on Caspase-10; 0% at Caspase-3; 0% at Caspase-5. Further, the inhibition at 100 µM was determined as 0% at Caspase-6; 23% at Caspase-8 (100 uM); 2% at Caspase-4; 50% at Caspase-10 (100 uM); 5% on Caspase-3; 0% at Caspase-5. For the same compound, the IC50 at Caspase-6, at Caspase-8 (read-out: IC50 Casp8), on Caspase-4, at Caspase-10 (read-out: IC50 Casp10), at Caspase-3 and on Caspase-5 was > 100 µM throughout.
Turning to `CC(C)[C@H](NC(=O)OCc1ccccc1)C(=O)N[C@H](/C=C(\Cl)S(C)(=O)=O)CC(=O)O` [Compound 2, Cbz-Val-Asp achlorovinyl methyl vinyl sulfone], the inhibition at 10 µM on Caspase-6 amounted to 1%; at Caspase-8 it was 2%; at Caspase-4, 0%; at Caspase-10 it was 0%; on Caspase-3, 1%; on Caspase-5 it was 10%. For the same compound, the inhibition at 100 µM on Caspase-6 worked out at 19%; on Caspase-8 (100 uM), 49%; at Caspase-4 it was 6%; on Caspase-10 (100 uM), 48%; on Caspase-3, 39%; on Caspase-5, 12%. Besides, the IC50 on Caspase-6, at Caspase-8 (read-out: IC50 Casp8), on Caspase-4, at Caspase-10 (read-out: IC50 Casp10), on Caspase-3 and at Caspase-5 was > 100 µM each time. Moreover, the “% Inhibition at 100 uM Casp8” value on Caspase-8 (100 uM) is 33%. Moreover, at Caspase-10 (100 uM), the “% Inhibition at 100 uM Casp10” value was determined as 31%.
For the compound `CC(C)(C)OC(=O)CC[C@H](NC(=O)OC(C)(C)C)C(=O)N[C@H](/C=C/S(C)(=O)=O)CC(=O)OC(C)(C)C` [Compound 21, Boc-Glu(O—tBu)-Asp (O—tBu)-methyl vinyl sulfone], the inhibition at 10 µM was 1% at Caspase-6; 3% at Caspase-8; 0% at Caspase-4; 0% at Caspase-10; 0% at Caspase-3; 3% on Caspase-5. In addition, the inhibition at 100 µM on Caspase-6 amounted to 10%; at Caspase-8 (100 uM), 4%; on Caspase-4, 4%; at Caspase-10 (100 uM) it was 0%; on Caspase-3 it was 4%; at Caspase-5, 7%. Besides, the IC50 at Caspase-6, at Caspase-8 (read-out: IC50 Casp8), on Caspase-4, at Caspase-10 (read-out: IC50 Casp10), on Caspase-3 and at Caspase-5 was > 100 µM throughout.
